According to the NIST ThermoML archive (doi:10.1016/j.jct.2015.11.027):
± gives the expanded uncertainty stated by the source.

Details: Liquid, Vibrating wire viscometry

Cc1ccc(C)cc1 [1,4-dimethylbenzene]
Details | viscosity [mPa·s]
293.03 K, 15000 kPa | 0.7277 ± 0.016
293.03 K, 20000 kPa | 0.7569 ± 0.017
293.03 K, 25000 kPa | 0.7883 ± 0.017
293.03 K, 30000 kPa | 0.8186 ± 0.018
293.04 K, 100 kPa | 0.6444 ± 0.015
293.04 K, 1000 kPa | 0.6494 ± 0.015
293.04 K, 5000 kPa | 0.672 ± 0.015
293.04 K, 10000 kPa | 0.6997 ± 0.016
302.86 K, 100 kPa | 0.5762 ± 0.013
302.86 K, 1000 kPa | 0.5804 ± 0.013
302.87 K, 5000 kPa | 0.5995 ± 0.014
302.87 K, 10000 kPa | 0.6244 ± 0.014
302.88 K, 15000 kPa | 0.6499 ± 0.015
302.88 K, 20000 kPa | 0.6747 ± 0.015
302.88 K, 25000 kPa | 0.7023 ± 0.016
302.89 K, 30000 kPa | 0.7274 ± 0.016
312.76 K, 100 kPa | 0.515 ± 0.012
312.76 K, 1000 kPa | 0.5186 ± 0.012
312.76 K, 15000 kPa | 0.5806 ± 0.013
312.76 K, 20000 kPa | 0.6027 ± 0.014
312.76 K, 25000 kPa | 0.6263 ± 0.014
312.76 K, 30000 kPa | 0.6494 ± 0.015
312.77 K, 5000 kPa | 0.5356 ± 0.012
312.77 K, 10000 kPa | 0.5575 ± 0.013
322.62 K, 100 kPa | 0.4653 ± 0.011
322.63 K, 1000 kPa | 0.4689 ± 0.011
322.64 K, 5000 kPa | 0.4833 ± 0.011
322.64 K, 10000 kPa | 0.5038 ± 0.012
322.64 K, 15000 kPa | 0.524 ± 0.012
322.64 K, 20000 kPa | 0.5442 ± 0.013
322.64 K, 25000 kPa | 0.5653 ± 0.013
322.65 K, 30000 kPa | 0.5861 ± 0.013
332.57 K, 30000 kPa | 0.5304 ± 0.012
332.58 K, 100 kPa | 0.4206 ± 0.01
332.58 K, 1000 kPa | 0.4237 ± 0.01
332.58 K, 5000 kPa | 0.4383 ± 0.01
332.58 K, 10000 kPa | 0.4564 ± 0.011
332.58 K, 15000 kPa | 0.4745 ± 0.011
332.58 K, 20000 kPa | 0.493 ± 0.011
332.58 K, 25000 kPa | 0.5109 ± 0.012
342.27 K, 100 kPa | 0.3815 ± 0.0093
342.27 K, 1000 kPa | 0.3842 ± 0.0093
342.28 K, 5000 kPa | 0.3977 ± 0.0096
342.28 K, 10000 kPa | 0.4144 ± 0.0099
342.28 K, 20000 kPa | 0.4482 ± 0.011
342.29 K, 15000 kPa | 0.4314 ± 0.01
342.29 K, 25000 kPa | 0.4649 ± 0.011
342.29 K, 30000 kPa | 0.4833 ± 0.011
352.2 K, 5000 kPa | 0.3634 ± 0.0089
352.2 K, 10000 kPa | 0.3791 ± 0.0092
352.2 K, 15000 kPa | 0.3945 ± 0.0095
352.2 K, 20000 kPa | 0.4111 ± 0.0098
352.2 K, 25000 kPa | 0.4263 ± 0.01
352.2 K, 30000 kPa | 0.4423 ± 0.01
352.21 K, 100 kPa | 0.3483 ± 0.0086
352.21 K, 1000 kPa | 0.3507 ± 0.0087
362.73 K, 100 kPa | 0.3194 ± 0.0081
362.74 K, 1000 kPa | 0.3217 ± 0.0081
362.75 K, 5000 kPa | 0.3331 ± 0.0083
362.76 K, 10000 kPa | 0.3467 ± 0.0086
362.76 K, 15000 kPa | 0.3616 ± 0.0089
362.77 K, 20000 kPa | 0.3756 ± 0.0092
362.81 K, 25000 kPa | 0.3915 ± 0.0095
362.82 K, 30000 kPa | 0.405 ± 0.0097
372.69 K, 20000 kPa | 0.348 ± 0.0086
372.69 K, 25000 kPa | 0.3614 ± 0.0089
372.69 K, 30000 kPa | 0.3752 ± 0.0091
372.7 K, 10000 kPa | 0.3203 ± 0.0081
372.7 K, 15000 kPa | 0.3341 ± 0.0084
372.71 K, 100 kPa | 0.2936 ± 0.0076
372.71 K, 1000 kPa | 0.296 ± 0.0076
372.71 K, 5000 kPa | 0.3061 ± 0.0078
